Experimental data from patent publication US6977254B2, “Hydroxy cyclohexenyl phenyl carboxamides tocolytic oxytocin receptor antagonists” (Wyeth, priority 2001, dated 2005).

target: T1, human V2 vasopressin receptor subtype (Homo sapiens, UniProt P30518); experiment: Vasopressin binding in CHO cell membranes expressing human vasopressin V2 subtype receptors ([3H]arginine vasopressin); conditions: 100 nM, value without parentheses
T1 construct: host or cells: CHO cells, stably transfected (pZeoSV vector); membranes
T1 sequence (P30518 whole entry): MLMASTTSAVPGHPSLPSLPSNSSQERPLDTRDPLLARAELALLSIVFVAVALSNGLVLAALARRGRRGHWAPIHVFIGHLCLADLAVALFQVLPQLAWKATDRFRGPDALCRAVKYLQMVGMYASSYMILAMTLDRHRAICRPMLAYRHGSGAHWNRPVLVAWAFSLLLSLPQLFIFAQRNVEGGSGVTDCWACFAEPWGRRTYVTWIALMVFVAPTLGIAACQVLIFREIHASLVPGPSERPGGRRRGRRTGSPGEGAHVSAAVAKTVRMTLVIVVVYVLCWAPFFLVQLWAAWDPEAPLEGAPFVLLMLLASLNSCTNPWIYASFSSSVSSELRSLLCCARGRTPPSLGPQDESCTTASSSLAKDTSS
Text: Vasopressin Binding in Chinese Hamster Ovary Cell Membranes Expressing Human Vasopressin V2 Subtype Receptors
Chinese Hamster Ovary (CHO) cells stably transfected with the human V2 subtype receptors were obtained from M. Thibonnier, Case Western Reserve University School of Medicine, Cleveland, Ohio.
A. Passaging and Amplification of Cells:
CHO cells transfected with the human vasopressin V2 subtype receptors obtained from M. Thibonnier (pZeoSV vector) are allowed to grow to confluency (approx. >90%) in T-150 flasks under sterile conditions, in a cell culture medium of F-12 Nutrient Mixture (HAM) with L-glutamine (Gibco Cat. #11765-054) containing 15 mM HEPES (Gibco Cat. #15630-080), 1% antibiotic/antimycotic (add 5 mL 100×, Gibco Cat. #15240-062 per 500 mL F-12), 250 μg/mL Zeocin (add 1.25 mL of 100 mg/mL Invitrogen R-250-01 per 500 mL F-12) and 10% Fetal Bovine Serum (Qualified, heat inactivated, Gibco Cat. #16140-063). The medium is removed by aspiration and the cells washed with 10 mL of Hank's Balanced Salt solution (Gibco Cat. #14175-095). The salt solution is removed by aspiration and the cells trypsinized with 5 mL of trypsin-EDTA (0.05% trypsin, 0.53 mM EDTA-4Na, Gibco Cat. #25300-070) for 1 min. The trypsin is removed by aspiration and the cells dislodged by tapping. Cell Culture medium (e.g. 30 mL for 1:30 split) is immediately added and mixed well to inactivate trypsin. 1 mL of detached cells is added to new culture flasks containing fresh Cell Culture medium (e.g. into 25 mL per T-150 flask), and mixed gently. The cells are incubated at 37° C. in 5% CO2. The medium is changed at 3 to 4 day interval (or as appropriate). The cells grow to confluency (approx. >75%-95%) within 7-8 days. All steps are done under sterile conditions.
The cells are washed twice gently with Hank's Balanced Salt solution (e.g. use 10 mL per T-150 flask). The excess solution is removed and the cells bathed for 15-30 min. in an enzyme-free Cell Dissociation Buffer (e.g. use 8 mL Hank's Based, Gibco Cat. #13150-016 per T-150 flask) until cells are loosened. The contents are transferred to centrifuge tubes (50 mL size) kept in ice bath. All subsequent steps are done at 4° C. The tubes are centrifuged at 300×g for 15 min (1380 rpm on SORVAL, Model RT6000D, using rotor for 50 mL tubes). The supernatant is discarded and the cells suspended in homogeneizing buffer(10 mM Tris-HCl containing 0.25 M sucrose and 1 mM EDTA, pH 7.4) ensuring that the volume of the buffer is about ten times the volume of the cell pellet. The cells are pooled into a centrifuge tube (50 mL) and homogenized with Polytron at setting 6 for 10 sec. The homogenate is transferred into a Potter-Elvjehm homogeneizer and homogenized with 3 strokes. The homogenate is centrifuged at 1500×g for 60 min at 4° C. (3100 rpm using SORVAL, model RT6000D, using rotor for 50 mL tubes). The pellet is discarded. The supernatant is centrifuged at 100,000×g for 60 min. at 4° C. (Beckman L8-80M ultracentrifuge; spin at 37,500 rpm with rotor type 70 Ti for 50 mL tubes; 38,000 rpm with type 80Ti for 15 mL tubes; or 35,800 rpm with rotor type 45Ti). The supernantant is discarded and the pellet suspended in 3 to 4 mL of Tris buffer (50 mM TRIS-HCl, pH 7.4). The protein content is estimated by the Bradford or Lowry method. The volume of the membrane suspension is adjusted with the membrane buffer (50 mM Tris-HCl containing 0.1% BSA and 0.1 mM PMSF) to give 3.0 mg/mL (or as appropriate) of protein. The membranes are aliquoted and stored at −70° C.
C. Radioligand Binding Assay:
In wells of a 96-well format microtiter plate, is added 90, 110 or 130 μL (to make up a final volume of 200 μL) of assay buffer containing 50 mM of Tris-HCl (pH 7.4), […], 1 mg % aprotinin, 1 mg % leupeptin, 2 mg % 1,10-phenanthroline, 10 mg % trypsin inhibitor, and 0.1 mM PMSF. The inhibitors are added on the day of the experiment. […]

Compound | inhibition at 0.1 µM | V2 % inhibition @ 100 nM
Cc1cc(C(=O)N2Cc3ccc(C(=O)O)n3Cc3ccccc32)ccc1C1=CCCCC1 [Example 5E, 10-(4-Cyclohex-1-en-1-yl-3-methyl-benzoyl)-10,11-dihydro-5H-pyrrolo[2,1-c][1,4]benzodiazepine-3-carboxylic acid] | 15% | –
Cc1cc(C(=O)N2Cc3ccc(C(=O)N(C)C[C@@H]4OC(=O)O[C@H]4[C@H](O)[C@H]4COC(=O)O4)n3Cc3ccccc32)ccc1C1=CCCCC1 [Example 7, 10-(4-Cyclohex-1-en-1-yl-3-methylbenzoyl)-N-[((4S,5S)-5-{(R)-hydroxy[(4R)-2-oxo-1,3-dioxolan-4-yl]methyl}-2-oxo-1,3-dioxolan-4-yl)methyl]-N-methyl-10,11-dihydro-5H-pyrrolo[2,1-c][1,4]benzodiazepine-3-carboxamide] | 14% | –

Further lines, results first:

inhibition at 0.1 µM | V2 % inhibition @ 100 nM | Compound
11% | – | CCOC(=O)[C@H](Cc1ccc(O)cc1)NC(=O)c1ccc2n1Cc1ccccc1N(C(=O)c1ccc(C3=CCCCC3)c(C)c1)C2 [Example 9, (2S)-2-{[10-(4-Cyclohex-1-en-1-yl-3-methyl-benzoyl)-10,11-dihydro-5H-pyrrolo[2,1-c][1,4]benzodiazepine-3-carbonyl]-amino}-3-(4-hydroxy-phenyl)-propionic acid ethyl ester]
– | 46% | Cc1cc(C(=O)N2Cc3ccc(C(=O)N(CCO)CCO)n3Cc3ccccc32)ccc1C1=CCCc2ccccc21 [Example 16, {10-[4-(3,4-Dihydro-naphthalen-1-yl)-3-methyl-benzoyl]-10,11-dihydro-5H-pyrrolo[2,1-c][1,4]benzodiazepin-3-yl}-3-carboxylic acid bis-(2-hydroxy-ethyl)-amide]
9% | – | COC(=O)[C@@H](CO)NC(=O)c1ccc2n1Cc1ccccc1N(C(=O)c1ccc(C3=CCCCC3)c(C)c1)C2 [Example 12, (2R)-2-{[10-(4-Cyclohex-1-en-1-yl-3-methyl-benzoyl)-10,11-dihydro-5H-pyrrolo[2,1-c][1,4]benzodiazepine-3-carbonyl]-amino}-3-hydroxy-propionic acid methyl ester]
11% | – | Cc1cc(C(=O)N2Cc3ccc(C(=O)N[C@H](CO)C(=O)O)n3Cc3ccccc32)ccc1C1=CCCCC1 [Example 14, (2R)-2-{[10-(4-Cyclohex-1-en-1-yl-3-methyl-benzoyl)-10,11-dihydro-5H-pyrrolo[2,1-c][1,4]benzodiazepine-3-carbonyl]-amino}-3-hydroxy-propionic acid]
– | 7% | Cc1cc(C(=O)N2Cc3ccc(C(=O)N4CCN(CCO)CC4)n3Cc3ccccc32)ccc1C1=CCCCC1 [Example 17, {10-[4-(1-Cyclohex-1-en-1-yl)-3-methylbenzoyl]-10,11-dihydro-5H-pyrrolo[2,1-c][1,4]benzodiazepin-3-yl}[4-(2-hydroxyethyl)-1-piperazinyl]methanone]

same assay, conditions: value in parentheses

IC50 | Compound
> 3000 nM | COC[C@@H](OC)[C@@H](OC)[C@H](OC)[C@H](CN(C)C(=O)c1ccc2n1Cc1ccccc1N(C(=O)c1ccc(C3=CCCCC3)c(C)c1)C2)OC [Example 8, 10-(4-Cyclohex-1-en-1-yl-3-methylbenzoyl)-N-methyl-N-[(2S,3R,4R,5R)-2,3,4,5,6-pentamethoxyhexyl]-10,11-dihydro-5H-pyrrolo[2,1-c][1,4]benzodiazepine-3-carboxamide]
558 nM | Cc1cc(C(=O)N2Cc3ccc(C(=O)N(C)C[C@H](O)[C@H]4OC(=O)O[C@@H]4[C@H](O)CO)n3Cc3ccccc32)ccc1C1=CCCCC1 [Example 6, 10-(4-Cyclohex-1-en-1-yl-3-methylbenzoyl)-N-((2S)-2-{(4R,5R)-5-[(1R)-1,2-dihydroxyethyl]-2-oxo-1,3-dioxolan-4-yl}-2-hydroxyethyl)-N-methyl-10,11-dihydro-5H-pyrrolo[2,1-c][1,4]benzodiazepine-3-carboxamide]
